Source: ChEMBL document CHEMBL4507286 (2021)

Legend:
[1] = target: Insulin-like growth factor 1 receptor (Homo sapiens) (UniProt P08069)
[2] = target: Ephrin type-A receptor 4 (Homo sapiens) (UniProt P54764)
[3] = target: Ribosomal protein S6 kinase alpha-6 (Homo sapiens) (UniProt Q9UK32)
[4] = target: Proto-oncogene tyrosine-protein kinase receptor Ret (Homo sapiens) (UniProt P07949)
[5] = target: 5'-AMP-activated protein kinase catalytic subunit alpha-2 (Homo sapiens) (UniProt P54646)
[6] = target: Mitogen-activated protein kinase 11 (Homo sapiens) (UniProt Q15759)
[7] = target: LIM domain kinase 2 (Homo sapiens) (UniProt P53671)
[8] = target: Mitogen-activated protein kinase kinase kinase 15 (Homo sapiens) (UniProt Q6ZN16)
[9] = target: RAC-gamma serine/threonine-protein kinase (Homo sapiens) (UniProt Q9Y243)
[10] = target: Dual specificity mitogen-activated protein kinase kinase 2 (Homo sapiens) (UniProt P36507)
[11] = target: Protein kinase C iota type (Homo sapiens) (UniProt P41743)
[12] = target: Calcium/calmodulin-dependent protein kinase type II subunit delta (Homo sapiens) (UniProt Q13557)
[13] = target: Alpha-1A adrenergic receptor (Homo sapiens) (UniProt P35348); conditions: Compound concentration 10.0 uM
[14] = target: Serine/threonine-protein kinase NIM1 (Homo sapiens) (UniProt Q8IY84)
[15] = system: Mast/stem cell growth factor receptor Kit (Homo sapiens), P10721 [V559D,T670I]
[16] = target: Serine/threonine-protein kinase 32C (Homo sapiens) (UniProt Q86UX6)
[17] = target: Wee1-like protein kinase 2 (Homo sapiens) (UniProt P0C1S8)
Sequence of Wee1-like protein kinase 2 (Homo sapiens) (P0C1S8 whole entry, looked up): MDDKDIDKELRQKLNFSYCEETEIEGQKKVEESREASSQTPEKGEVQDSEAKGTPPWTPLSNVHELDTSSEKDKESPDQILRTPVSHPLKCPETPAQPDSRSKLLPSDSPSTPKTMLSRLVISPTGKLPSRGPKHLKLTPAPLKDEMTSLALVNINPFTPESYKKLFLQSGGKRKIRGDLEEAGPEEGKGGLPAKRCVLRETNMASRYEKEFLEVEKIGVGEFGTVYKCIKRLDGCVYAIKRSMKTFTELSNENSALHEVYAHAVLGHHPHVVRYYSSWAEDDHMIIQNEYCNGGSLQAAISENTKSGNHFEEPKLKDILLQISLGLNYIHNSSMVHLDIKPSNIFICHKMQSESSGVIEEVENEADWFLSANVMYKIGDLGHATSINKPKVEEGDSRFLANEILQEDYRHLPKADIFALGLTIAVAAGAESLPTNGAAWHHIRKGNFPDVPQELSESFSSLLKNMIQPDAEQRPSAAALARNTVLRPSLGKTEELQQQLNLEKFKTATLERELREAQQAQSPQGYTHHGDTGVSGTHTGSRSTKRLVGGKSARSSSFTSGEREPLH

[18] = target: Serine/threonine-protein kinase D2 (Homo sapiens) (UniProt Q9BZL6)
[19] = target: Serine/threonine-protein kinase 25 (Homo sapiens) (UniProt O00506)
Sequence of Serine/threonine-protein kinase 25 (Homo sapiens) (O00506 whole entry, looked up): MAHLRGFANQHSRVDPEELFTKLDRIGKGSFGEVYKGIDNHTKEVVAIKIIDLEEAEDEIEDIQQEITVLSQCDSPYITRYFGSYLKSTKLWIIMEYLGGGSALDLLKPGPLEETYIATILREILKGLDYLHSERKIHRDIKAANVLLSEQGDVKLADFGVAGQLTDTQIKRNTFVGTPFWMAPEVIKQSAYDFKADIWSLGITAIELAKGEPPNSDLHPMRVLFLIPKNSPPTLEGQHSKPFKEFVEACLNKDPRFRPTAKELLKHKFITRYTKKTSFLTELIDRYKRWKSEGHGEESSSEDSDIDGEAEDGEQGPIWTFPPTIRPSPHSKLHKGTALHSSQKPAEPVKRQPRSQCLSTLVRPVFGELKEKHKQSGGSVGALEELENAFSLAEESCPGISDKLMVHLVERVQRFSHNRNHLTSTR

[20] = target: Activin receptor type-2B (Homo sapiens) (UniProt Q13705)
[21] = system: Phosphatidylinositol 4,5-bisphosphate 3-kinase catalytic subunit alpha isoform (Homo sapiens), P42336 [H1047L]
[22] = target: Serine/threonine-protein kinase STK11 (Homo sapiens) (UniProt Q15831)
[23] = system: Receptor-type tyrosine-protein kinase FLT3 (Homo sapiens), P36888 [UNDEFINED MUTATION]
Sequence of Receptor-type tyrosine-protein kinase FLT3 (Homo sapiens), P36888 [UNDEFINED MUTATION] (P36888 whole entry, looked up, change not shown): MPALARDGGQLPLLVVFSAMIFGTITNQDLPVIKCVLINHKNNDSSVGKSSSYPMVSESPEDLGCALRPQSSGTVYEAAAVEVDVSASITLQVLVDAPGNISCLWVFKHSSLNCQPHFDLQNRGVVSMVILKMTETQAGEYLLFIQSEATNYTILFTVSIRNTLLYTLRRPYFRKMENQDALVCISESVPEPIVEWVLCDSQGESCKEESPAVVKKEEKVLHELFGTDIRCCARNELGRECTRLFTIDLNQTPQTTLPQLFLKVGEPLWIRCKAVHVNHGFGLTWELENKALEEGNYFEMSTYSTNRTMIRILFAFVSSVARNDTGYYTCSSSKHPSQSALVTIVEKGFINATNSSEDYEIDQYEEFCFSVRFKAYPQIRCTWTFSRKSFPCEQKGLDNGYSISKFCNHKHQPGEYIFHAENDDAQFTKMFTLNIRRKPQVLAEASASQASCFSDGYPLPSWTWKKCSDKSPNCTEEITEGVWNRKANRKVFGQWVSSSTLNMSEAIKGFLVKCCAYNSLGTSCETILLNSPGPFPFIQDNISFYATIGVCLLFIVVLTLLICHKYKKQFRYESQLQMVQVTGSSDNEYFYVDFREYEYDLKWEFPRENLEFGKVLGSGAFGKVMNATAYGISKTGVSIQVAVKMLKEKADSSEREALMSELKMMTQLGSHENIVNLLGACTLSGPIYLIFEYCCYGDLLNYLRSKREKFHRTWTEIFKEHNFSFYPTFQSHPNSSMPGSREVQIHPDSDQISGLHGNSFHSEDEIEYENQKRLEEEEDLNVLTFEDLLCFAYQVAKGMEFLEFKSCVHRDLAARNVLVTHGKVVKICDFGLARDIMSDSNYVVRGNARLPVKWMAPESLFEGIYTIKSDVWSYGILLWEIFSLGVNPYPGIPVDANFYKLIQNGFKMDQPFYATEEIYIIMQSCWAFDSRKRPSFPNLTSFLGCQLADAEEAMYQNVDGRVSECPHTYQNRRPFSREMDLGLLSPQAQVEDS

[24] = target: Serine/threonine-protein kinase PAK 6 (Homo sapiens) (UniProt Q9NQU5)
[25] = target: Casein kinase II subunit alpha (Homo sapiens) (UniProt P68400)
Sequence of Casein kinase II subunit alpha (Homo sapiens) (P68400 whole entry, looked up): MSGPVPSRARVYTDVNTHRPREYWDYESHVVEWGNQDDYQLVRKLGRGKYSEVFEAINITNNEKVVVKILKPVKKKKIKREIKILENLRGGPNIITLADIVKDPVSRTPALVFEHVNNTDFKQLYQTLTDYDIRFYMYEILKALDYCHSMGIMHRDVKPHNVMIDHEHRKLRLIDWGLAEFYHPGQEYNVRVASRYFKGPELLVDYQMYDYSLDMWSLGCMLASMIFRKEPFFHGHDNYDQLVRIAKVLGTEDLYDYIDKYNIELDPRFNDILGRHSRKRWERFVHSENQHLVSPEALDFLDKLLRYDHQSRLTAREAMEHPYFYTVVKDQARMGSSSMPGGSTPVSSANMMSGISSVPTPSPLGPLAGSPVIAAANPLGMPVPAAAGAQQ

[26] = target: Calcium/calmodulin-dependent protein kinase type 1B (Homo sapiens) (UniProt Q6P2M8)
Sequence of Calcium/calmodulin-dependent protein kinase type 1B (Homo sapiens) (Q6P2M8 whole entry): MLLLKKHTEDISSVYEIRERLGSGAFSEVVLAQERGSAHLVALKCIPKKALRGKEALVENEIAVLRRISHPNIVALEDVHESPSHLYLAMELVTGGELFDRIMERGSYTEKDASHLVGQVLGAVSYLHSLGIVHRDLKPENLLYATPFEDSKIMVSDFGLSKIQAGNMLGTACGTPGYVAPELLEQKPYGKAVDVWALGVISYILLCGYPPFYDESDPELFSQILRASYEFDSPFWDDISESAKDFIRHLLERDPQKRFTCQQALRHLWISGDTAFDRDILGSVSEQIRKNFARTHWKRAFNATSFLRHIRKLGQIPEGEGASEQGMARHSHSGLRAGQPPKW

[27] = target: Tyrosine-protein kinase CSK (Homo sapiens) (UniProt P41240)
Sequence of Tyrosine-protein kinase CSK (Homo sapiens) (P41240 2-450 limits assumed): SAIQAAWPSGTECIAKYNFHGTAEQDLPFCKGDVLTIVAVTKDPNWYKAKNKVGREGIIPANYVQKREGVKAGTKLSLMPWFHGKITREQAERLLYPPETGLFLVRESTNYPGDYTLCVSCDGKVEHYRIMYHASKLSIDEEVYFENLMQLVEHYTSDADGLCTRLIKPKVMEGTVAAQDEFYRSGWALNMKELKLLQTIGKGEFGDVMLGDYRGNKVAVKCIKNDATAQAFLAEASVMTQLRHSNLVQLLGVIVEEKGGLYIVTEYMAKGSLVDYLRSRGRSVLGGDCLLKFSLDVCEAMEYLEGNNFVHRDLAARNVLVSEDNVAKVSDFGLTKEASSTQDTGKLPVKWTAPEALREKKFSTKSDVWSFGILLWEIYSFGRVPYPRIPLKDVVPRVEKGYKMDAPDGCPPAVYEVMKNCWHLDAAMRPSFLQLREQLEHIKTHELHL

[28] = target: Phosphorylase b kinase regulatory subunit alpha, liver isoform (Homo sapiens) (UniProt P46019)
[29] = target: Atypical kinase COQ8B, mitochondrial (Homo sapiens) (UniProt Q96D53)
[30] = system: Serine/threonine-protein kinase B-raf (Homo sapiens), P15056 [V600E]
[31] = target: Phosphatidylinositol 5-phosphate 4-kinase type-2 beta (Homo sapiens) (UniProt P78356)
[32] = target: Serine/threonine-protein kinase PLK1 (Homo sapiens) (UniProt P53350)
[33] = target: Mitogen-activated protein kinase kinase kinase 12 (Homo sapiens) (UniProt Q12852)
[34] = target: Dual specificity tyrosine-phosphorylation-regulated kinase 1A (Homo sapiens) (UniProt Q13627)
[35] = target: Mu-type opioid receptor (Homo sapiens) (UniProt P35372); conditions: Compound concentration 10.0 uM
[36] = target: Serine/threonine-protein kinase LATS2 (Homo sapiens) (UniProt Q9NRM7)
[37] = target: Beta-adrenergic receptor kinase 1 (Homo sapiens) (UniProt P25098)
[38] = target: Mast/stem cell growth factor receptor Kit (Homo sapiens) (UniProt P10721)
[39] = target: Activin receptor type-1-like (Homo sapiens) (UniProt P37023)
Sequence of Activin receptor type-1-like (Homo sapiens) (P37023 whole entry): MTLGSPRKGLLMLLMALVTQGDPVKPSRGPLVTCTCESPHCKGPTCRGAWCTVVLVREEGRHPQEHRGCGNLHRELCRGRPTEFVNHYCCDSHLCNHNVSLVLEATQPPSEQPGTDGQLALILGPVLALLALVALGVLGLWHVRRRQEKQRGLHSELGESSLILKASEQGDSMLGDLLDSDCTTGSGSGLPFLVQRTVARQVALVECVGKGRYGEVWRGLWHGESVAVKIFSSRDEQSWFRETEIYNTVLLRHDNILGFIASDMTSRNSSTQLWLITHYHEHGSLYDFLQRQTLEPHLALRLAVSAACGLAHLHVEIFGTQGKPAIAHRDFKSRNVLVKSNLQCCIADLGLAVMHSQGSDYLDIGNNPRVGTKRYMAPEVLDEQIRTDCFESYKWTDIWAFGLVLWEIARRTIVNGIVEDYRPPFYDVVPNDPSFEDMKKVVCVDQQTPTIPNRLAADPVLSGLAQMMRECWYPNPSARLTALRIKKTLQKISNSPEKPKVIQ

[40] = target: Inhibitor of nuclear factor kappa-B kinase subunit epsilon (Homo sapiens) (UniProt Q14164)
[41] = target: TRAF2 and NCK-interacting protein kinase (Homo sapiens) (UniProt Q9UKE5)
Sequence of TRAF2 and NCK-interacting protein kinase (Homo sapiens) (Q9UKE5 whole entry, looked up): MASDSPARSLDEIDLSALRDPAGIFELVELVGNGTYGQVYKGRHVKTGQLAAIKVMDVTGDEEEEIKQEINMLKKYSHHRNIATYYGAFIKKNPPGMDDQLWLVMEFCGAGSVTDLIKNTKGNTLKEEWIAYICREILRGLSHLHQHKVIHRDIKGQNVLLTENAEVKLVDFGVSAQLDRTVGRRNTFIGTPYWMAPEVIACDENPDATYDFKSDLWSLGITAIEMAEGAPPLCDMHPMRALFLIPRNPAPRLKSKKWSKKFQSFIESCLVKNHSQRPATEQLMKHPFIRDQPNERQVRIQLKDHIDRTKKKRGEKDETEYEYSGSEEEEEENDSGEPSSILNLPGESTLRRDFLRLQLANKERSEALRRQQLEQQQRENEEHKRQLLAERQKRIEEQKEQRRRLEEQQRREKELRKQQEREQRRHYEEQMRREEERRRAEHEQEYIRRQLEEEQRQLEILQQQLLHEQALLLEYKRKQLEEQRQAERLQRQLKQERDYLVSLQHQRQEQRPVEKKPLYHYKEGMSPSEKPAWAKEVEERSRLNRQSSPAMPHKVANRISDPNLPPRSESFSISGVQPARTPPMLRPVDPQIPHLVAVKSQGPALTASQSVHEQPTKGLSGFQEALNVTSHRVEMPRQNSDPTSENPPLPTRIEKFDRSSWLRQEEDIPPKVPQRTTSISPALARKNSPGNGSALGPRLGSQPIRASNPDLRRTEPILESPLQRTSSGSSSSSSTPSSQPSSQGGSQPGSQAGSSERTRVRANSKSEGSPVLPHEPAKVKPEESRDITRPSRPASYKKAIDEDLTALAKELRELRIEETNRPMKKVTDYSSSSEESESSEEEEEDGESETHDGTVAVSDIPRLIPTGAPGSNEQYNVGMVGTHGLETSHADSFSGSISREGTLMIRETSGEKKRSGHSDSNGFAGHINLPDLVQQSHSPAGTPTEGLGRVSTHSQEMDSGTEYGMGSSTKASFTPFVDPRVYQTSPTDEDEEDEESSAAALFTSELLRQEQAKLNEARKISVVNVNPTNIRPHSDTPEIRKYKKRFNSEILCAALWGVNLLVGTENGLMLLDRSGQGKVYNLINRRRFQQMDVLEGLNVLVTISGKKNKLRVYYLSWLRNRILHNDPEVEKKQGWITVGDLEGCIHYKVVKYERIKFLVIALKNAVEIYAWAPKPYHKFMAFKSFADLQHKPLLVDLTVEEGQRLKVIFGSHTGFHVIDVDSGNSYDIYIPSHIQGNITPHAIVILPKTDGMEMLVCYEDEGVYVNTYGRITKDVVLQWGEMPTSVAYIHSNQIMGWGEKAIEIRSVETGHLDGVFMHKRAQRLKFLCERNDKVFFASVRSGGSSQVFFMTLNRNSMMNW

[42] = target: Serine/threonine-protein kinase PLK2 (Homo sapiens) (UniProt Q9NYY3)
[43] = target: Serine/threonine-protein kinase B-raf (Homo sapiens) (UniProt P15056)
[44] = target: D(1B) dopamine receptor (Homo sapiens) (UniProt P21918); conditions: Compound concentration 10.0 uM
[45] = target: Ephrin type-A receptor 2 (Homo sapiens) (UniProt P29317)
[46] = Compound concentration 1000.0 nM
[47] = Compound concentration 100.0 nM

C[C@H](NC(=O)Nc1cc2[nH]ncc2c(CO)n1)c1ccccn1 [ERKi-NC]
residual activity [1, 46]: 100% | residual activity [2, 46]: 61% | residual activity [3, 46]: 100% | residual activity [4, 46]: 100% | residual activity [5, 46]: 100% | residual activity [6, 46]: 100% | residual activity [7, 46]: 96% | residual activity [8, 46]: 100% | residual activity [9, 46]: 100% | residual activity [10, 46]: 90.7% | residual activity [11, 46]: 85.5% | residual activity [12, 46]: 81% | inhibition [13]: -8.5% | residual activity [14, 46]: 100% | residual activity [15, 46]: 85.5% | residual activity [16, 46]: 74% | residual activity [17, 46]: 100% | residual activity [18, 46]: 100% | residual activity [19, 46]: 100% | residual activity [20, 46]: 86.2% | residual activity [21, 46]: 100% | residual activity [22, 46]: 100% | residual activity [23, 46]: 100% | residual activity [24, 46]: 100% | residual activity [25, 46]: 100% | residual activity [26, 46]: 98.5% | residual activity [27, 46]: 100% | residual activity [28, 46]: 100% | residual activity [29, 46]: 99.8% | residual activity [30, 46]: 100% | residual activity [31, 46]: 99.5% | residual activity [32, 46]: 92.1% | residual activity [33, 46]: 67.9% | residual activity [34, 46]: 100% | inhibition [35]: -6.59% | residual activity [36, 46]: 100% | residual activity [37, 46]: 79.3% | residual activity [38, 46]: 96.9% | residual activity [39, 46]: 92.3% | residual activity [40, 46]: 100% | residual activity [41, 46]: 100% | residual activity [42, 46]: 100% | residual activity [43, 46]: 100% | inhibition [44]: 7.55% | residual activity [45, 46]: 100%

C[C@@H](NC(=O)Nc1cc2[nH]ncc2c(CO)n1)c1ccccc1 [ERKi]
residual activity [1, 47]: 97.9% | residual activity [2, 47]: 100% | residual activity [3, 47]: 83.4% | residual activity [4, 47]: 92.6% | residual activity [5, 47]: 59.6% | residual activity [6, 47]: 100% | residual activity [7, 47]: 100% | residual activity [8, 47]: 100% | residual activity [9, 47]: 73.3% | residual activity [10, 47]: 84.8% | residual activity [11, 47]: 100% | residual activity [12, 47]: 77.7% | inhibition [13]: 16.1% | residual activity [14, 47]: 100% | residual activity [15, 47]: 83.7% | residual activity [16, 47]: 100% | residual activity [17, 47]: 77.6% | residual activity [18, 47]: 97.5% | residual activity [19, 47]: 61.5% | residual activity [20, 47]: 87.6% | residual activity [21, 47]: 82.1% | residual activity [22, 47]: 91.2% | residual activity [23, 47]: 80.7% | residual activity [24, 47]: 63.5% | residual activity [25, 47]: 94% | residual activity [26, 47]: 91.2% | residual activity [27, 47]: 77.1% | residual activity [28, 47]: 78.8% | residual activity [29, 47]: 86.7% | residual activity [30, 47]: 100% | residual activity [31, 47]: 45% | residual activity [32, 47]: 58.4% | residual activity [33, 47]: 97.4% | residual activity [34, 47]: 49% | inhibition [35]: 6.82% | residual activity [36, 47]: 29% | residual activity [37, 47]: 79.5% | residual activity [38, 47]: 92.5% | residual activity [39, 47]: 90.9% | residual activity [40, 47]: 66.7% | residual activity [41, 47]: 95.8% | residual activity [42, 47]: 95.1% | residual activity [43, 47]: 86.9% | inhibition [44]: 21.1% | residual activity [45, 47]: 100%
